Experimental findings from patent US12194044B2, “Organic compounds” (priority 2016, dated 2025) are described below.

Data set [1] relates to serotonin receptor (e.g., 5-HT2A), dopamine receptor (e.g., D2) and serotonin transporter. Description: Receptor binding studies, binding profile compared to Formula Q.
Data set [2] can be described thus: Measurement of parent and amide metabolite levels in mice after single oral dose. The data set is classed as in vivo. To be noted: for extent of amide formation compared to compound Q after normalizing for internal standard: normalized to internal standard. The method, then:
The compound of Comparative Example 4 is used as an internal standard in each study in order to control for differences in the inherent rate of metabolism in each study's animal group. […] The maximum concentration, time to maximum concentration, and Area Under the Curve (AUC) for both the parent and the major amide metabolite is determined. […] Relative Amide Formation is thus calculated as follows for each Example X (i.e., Ex. 1, Ex. 2, Ex. 3 and Ex. Q): [formula]

The nature of data set [3]: Pharmacokinetics in dogs, SL and SC, plasma parent and metabolite AUC. The data set is classed as in vivo, beagle dogs. To be noted: dog. The method, then: The pharmacokinetics of each compound is determined after both sublingual (SL) and subcutaneous (SC) administration in non-cross over sequential studies in dogs.
SC Administration: Six male beagle dogs between 2 and 5 years of age are randomized in two groups of three dogs each. […] Dogs in group 2 are administered the compound of Example 2 at a dose of 1 mg/kg (free base equivalent) in a 0.5% methylcellulose/distilled water vehicle. Administration is subcutaneous in the intrascapular region via a 22 or 23 gauge needle. Whole blood samples are collected via the dog's cephalic vein pre-dose, and at post-dose time-points 5, 15 and 30 minutes, 1, 2, 4, 6, 8 and 24 hours. Following a minimum 7-day washout period, the dogs are transferred to the sublingual portion of the study.
Dogs in group 2 are administered the compound of Example 2 at a dose of 1 mg/kg (free base equivalent) in a 0.5% methylcellulose/distilled water vehicle. The animals are anesthetized prior to administration of the dose using propofol (6 mg/kg) and anesthesia is maintained for 30 minutes using 3-4.5% isoflurane. Administration is sublingual and the dosage is applied for 30 minutes, then wiped off using unwoven gauze. Whole blood samples are collected via the dog's cephalic vein pre-dose, and at post-dose time-points 5, 15 and 30 minutes, 1, 2, 4, 6, 8, 24, 36 and 48 hours.
All blood samples are processed to plasma and analyzed for parent and metabolite concentrations using liquid chromatography-tandem mass spectrometry (LC-MS/MS). […] Area under the curve (AUC) of parent and metabolites based on plasma versus time data are calculated using Prism 5.04 software (GraphPad Software, Inc.).

The nature of data set [4]: Pharmacokinetics in rats, PO and IV cross-over, plasma parent and metabolite AUC. It is filed as in vivo. To be noted: male, Sprague-Dawley, rat. The protocol: The pharmacokinetics of each compound is determined after both oral (PO) and intravenous (IV) administration in cross-over studies in rats.
PO Administration: Six male Sprague-Dawley rats are divided into two 3-rat groups for PO administration of compound on day 1 of the study. […] Blood samples are collected at 0.25, 0.5, 1, 2, 4, 6, 8, 12 and 24-hours post dose and analyzed for plasma concentration of the administered compound and its metabolites.
IV Administration: Six male Sprague-Dawley rats are divided into two 3-rat groups for IV administration of compound on day 1 of the study. […] Blood samples are collected at 2 minutes, 5 minutes, 0.25, 0.5, 2, 4, 6, 8 and 12 hours post dose and analyzed for plasma concentration of the administered compound and its metabolites.
All blood samples are processed to plasma and analyzed for parent and metabolite concentrations using liquid chromatography-tandem mass spectrometry (LC-MS/MS). The metabolites analyzed include the N-demethylated amide compound Q-1 (discussed supra). Area under the curve (AUC) of parent and metabolites based on plasma versus time data are calculated using Prism 5.04 software (GraphPad Software, Inc.).

Data set [5] concerns the target T1, Serotonin 5-HT2A (Homo sapiens, UniProt P28223). The data set is described as follows: Receptor binding studies, inhibition of human serotonin 5-HT2A receptor. To be noted: read-out: inhibition of the human serotonin 5-HT2A receptor.
Data set [6] concerns the target Serotonin Transporter (Homo sapiens, UniProt P31645). The data set is described as follows: Receptor activity Ki, serotonin transporter. It is filed as binding.
Data set [7] has as its target Dopamine D1 (Homo sapiens, UniProt P21728). The data set is described as follows: Receptor activity Ki, dopamine D1. It is filed as binding.
For data set [8], the target named is Dopamine D2 (Homo sapiens, UniProt P14416). The data set is described as follows: Receptor activity Ki, dopamine D2. The data set is classed as binding.
Dopamine D2, sequence (P14416 whole entry): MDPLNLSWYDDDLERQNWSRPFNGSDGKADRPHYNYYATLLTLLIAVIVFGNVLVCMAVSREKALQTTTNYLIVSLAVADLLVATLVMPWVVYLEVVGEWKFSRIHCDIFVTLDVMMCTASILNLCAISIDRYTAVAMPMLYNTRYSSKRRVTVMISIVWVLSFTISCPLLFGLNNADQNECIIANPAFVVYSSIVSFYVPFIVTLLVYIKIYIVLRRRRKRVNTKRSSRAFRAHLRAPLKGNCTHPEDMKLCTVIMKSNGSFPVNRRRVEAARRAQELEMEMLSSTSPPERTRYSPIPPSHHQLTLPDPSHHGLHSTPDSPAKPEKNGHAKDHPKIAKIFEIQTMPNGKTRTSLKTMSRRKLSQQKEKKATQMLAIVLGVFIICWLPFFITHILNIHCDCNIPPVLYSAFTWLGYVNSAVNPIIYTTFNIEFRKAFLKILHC
The target of data set [9] is T1, Serotonin 5-HT2A. The data set is described as follows: biochemical.

T1 sequence (P28223 whole entry): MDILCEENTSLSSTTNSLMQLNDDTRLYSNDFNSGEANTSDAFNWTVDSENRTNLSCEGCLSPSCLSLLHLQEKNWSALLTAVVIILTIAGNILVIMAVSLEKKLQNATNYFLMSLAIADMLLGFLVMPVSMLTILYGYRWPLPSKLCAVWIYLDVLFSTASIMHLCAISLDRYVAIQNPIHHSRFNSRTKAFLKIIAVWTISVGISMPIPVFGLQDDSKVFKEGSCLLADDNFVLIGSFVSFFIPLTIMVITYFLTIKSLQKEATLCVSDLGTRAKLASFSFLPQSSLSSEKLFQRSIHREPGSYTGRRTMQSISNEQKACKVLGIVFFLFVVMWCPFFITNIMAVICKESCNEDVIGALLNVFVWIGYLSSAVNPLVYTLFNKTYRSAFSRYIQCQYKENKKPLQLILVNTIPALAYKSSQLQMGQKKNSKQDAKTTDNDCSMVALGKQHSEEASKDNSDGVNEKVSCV
Serotonin Transporter, sequence (P31645 whole entry): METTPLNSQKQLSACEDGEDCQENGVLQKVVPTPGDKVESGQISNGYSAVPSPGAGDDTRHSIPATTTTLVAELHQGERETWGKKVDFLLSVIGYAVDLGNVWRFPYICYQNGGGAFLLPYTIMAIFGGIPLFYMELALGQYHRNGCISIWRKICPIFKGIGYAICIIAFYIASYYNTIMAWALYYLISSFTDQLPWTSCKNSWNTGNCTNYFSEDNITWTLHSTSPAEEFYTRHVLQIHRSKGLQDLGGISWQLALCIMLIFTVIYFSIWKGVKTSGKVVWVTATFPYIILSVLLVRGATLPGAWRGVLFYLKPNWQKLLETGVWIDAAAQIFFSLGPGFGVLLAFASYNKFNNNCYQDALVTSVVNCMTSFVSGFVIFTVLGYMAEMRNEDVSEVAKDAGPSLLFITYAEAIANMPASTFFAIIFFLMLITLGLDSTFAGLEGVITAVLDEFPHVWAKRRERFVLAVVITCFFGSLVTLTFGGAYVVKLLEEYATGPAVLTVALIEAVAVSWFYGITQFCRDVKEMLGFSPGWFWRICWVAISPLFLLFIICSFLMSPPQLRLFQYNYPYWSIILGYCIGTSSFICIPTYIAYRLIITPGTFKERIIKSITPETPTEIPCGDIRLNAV
Dopamine D1, sequence (P21728 whole entry): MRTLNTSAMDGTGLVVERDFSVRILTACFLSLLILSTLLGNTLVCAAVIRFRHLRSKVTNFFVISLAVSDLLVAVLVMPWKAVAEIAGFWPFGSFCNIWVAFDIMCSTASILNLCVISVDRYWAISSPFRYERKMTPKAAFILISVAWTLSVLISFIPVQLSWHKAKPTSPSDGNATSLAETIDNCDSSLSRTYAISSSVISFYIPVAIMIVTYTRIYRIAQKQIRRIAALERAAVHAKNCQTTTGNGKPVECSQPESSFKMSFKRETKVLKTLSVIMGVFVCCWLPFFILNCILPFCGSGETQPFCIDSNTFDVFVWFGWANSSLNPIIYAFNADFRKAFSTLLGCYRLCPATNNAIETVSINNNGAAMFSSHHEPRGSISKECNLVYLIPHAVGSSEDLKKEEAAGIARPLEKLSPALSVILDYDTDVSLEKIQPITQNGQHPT

As a reminder, the AUC is concentration integrated over time. A word on the inhibition: it is the share of the control response that was lost under treatment. As to `[2H]C1([2H])CN2c3c(cccc3N1C)[C@@H]1CN(CCCC(=O)c3ccc(F)cc3)CC[C@@H]12` (stereo in doubt) [Example 2, 2,2-D2-1-(4-fluorophenyl)-4-((6bR,10aS)-3-methyl-2,3,6b,7,10,10a-hexahydro-1H-pyrido[3′,4′:4,5]pyrrolo[1,2,3-de]quinoxalin-8(9H)-yl)butan-1-one], the “receptor binding profile compared to Formula Q” value in data set [1] is “substantially the same receptor binding profile”. Moreover, in data set [2], the “extent of conversion of the parent compound to the amide metabolite compared to Formula Q” value (shortened to “extent of conversion … compared to Formula Q”) is “considerably lower” and the “extent of amide formation compared to compound Q after normalizing for internal standard” value is “significantly lower”. In addition, in [3] (SL dosing), the “higher parent AUC compared to dosing of Formula Q” value is on record as “about 72%”. For the same compound, the “higher parent AUC for SL compared to SC” value in data set [3] (SL vs SC) turned out to be 61%. Also, the exposure (AUC) in [4] (iv, 1 mg/kg) is 257 ng·h/mL. The AUC in [4] (po, 10 mg/kg) was found to be 58.5 ng·h/mL. The inhibition at 0.1 µM in [5] was determined as 98%.

As for `[2H]C([2H])([2H])N1CCN2c3c(cccc31)[C@@H]1CN(CCCC(=O)c3ccc(F)cc3)CC[C@@H]12` [Example 1, 1-(4-Fluorophenyl)-4-((6bR,10aS)-3-methyl-d3-2,3,6b,7,10,10a-hexahydro-1H-pyrido[3′,4′:4,5]pyrrolo[1,2,3-de]quinoxalin-8(9H)-yl)butan-1-one p-toluenesulfonate], the “receptor binding profile compared to Formula Q” value in data set [1] is reported as “substantially the same receptor binding profile”. Also, in [2], the “extent of conversion … compared to Formula Q” value is on record as “considerably lower” and the “extent of amide formation compared to compound Q after normalizing for internal standard” value is listed as “significantly lower”.

For `[2H]C([2H])([2H])N1c2cccc3c2N(CC1([2H])[2H])[C@H]1CCN(CCCC(=O)c2ccc(F)cc2)C[C@@H]31` [Example 3, 2,2-D2-1-(4-fluorophenyl)-4-((6bR,10aS)-3-methyl-d3-2,3,6b,7,10,10a-hexahydro-1H-pyrido[3′,4′:4,5]pyrrolo[1,2,3-de]quinoxalin-8(9H)-yl)butan-1-one p-toluenesulfonate], the “receptor binding profile compared to Formula Q” value in [1] is listed as “substantially the same receptor binding profile”. In data set [2], the “extent of conversion … compared to Formula Q” value is “considerably lower” and the “extent of amide formation compared to compound Q after normalizing for internal standard” value was “significantly lower”.

As a reminder, the Ki is the equilibrium dissociation constant of an inhibitor or competing ligand from its target. A high value points to a looser hold on the target. Take `O=C(CCCN1CC[C@H]2[C@@H](C1)c1cccc3c1N2CCN3)c1ccc(F)cc1` [Example Q-1A]: the Ki in data set [6] was 31 to 78 nM; in data set [7], 110 nM; in data set [8] it was 30 nM; in [9], 2 nM.

Take `O=C1CN2c3c(cccc3[C@@H]3CN(CCCC(=O)c4ccc(F)cc4)CC[C@@H]32)N1` [Example Q-1]: the Ki in [6] was more than 600 nM; in [8] it was 50 to 250 nM.

Regarding `CN1CCN2c3c(cccc31)[C@@H]1CN(CCCC(=O)c3ccc(F)cc3)CC[C@@H]12` [Formula Q, 4-((6bR,10aS)-3-methyl-2,3,6b,9,10,10a-hexahydro-1H-pyrido[3′,4′: 4,5]pyrrolo[1,2,3-de]quinoxalin-8(7H)-yl)-1-(4-fluorophenyl)-1-butanone, reference compound], in data set [3] (SL vs SC), the “less net AUC of parent compound, SL compared to SC administration” value is on record as 10%. Further, the exposure (AUC) in [4] (iv, 1 mg/kg) is 231 ng·h/mL; in data set [4] (po, 10 mg/kg), 56 ng·h/mL.
